In US9320733B2, “Assessment and modulation of cerebrospinal fluid for head pain” (priority 2010, dated 2016):

Test system: patient with headache (CSF pressures 13-14 cmW)
Assay: Case report (Example 1): one patient with 10 years of headache and normal CSF pressure, treated by CSF removal via lumbar puncture and then Diamox
Assay type: in vivo, human
Description: Therefore more CSF was drained 10 ml total. […] For example triptans may be combined with Diamox or diuretics, triptans may be combined with NSAM or Lumbar puncture, shunts or intraocular drainage procedures may be use singularly or together.

Row | SMILES | postdural puncture headache (PDPH) while on treatment (3 days after LP with 10 ml CSF drained and start of Diamox, PDPH lost on brief discontinuation) | usual headache after being placed on Diamox (after removal of 10 ml CSF by LP, 3 days later) | symptom status on maintenance treatment (low dose Diamox, after CSF removal) | response of the major headache component to medication (10 years of headache, before CSF removal)
1 | CC(=O)Nc1nnc(S(N)(=O)=O)s1 [Diamox, acetazolamide] | developed postdurai puncture headache | total absence of their usual headache | symptom free | –
2 | CC1(C)O[C@@H]2[C@@H](CO[C@@]3(COS(N)(=O)=O)OC(C)(C)O[C@@H]23)O1 [Topamax, topiramate] | – | – | – | refractory to treatment
